From PMC7449215, “Caspofungin Weight-Based Dosing Supported by a Population Pharmacokinetic Model in Critically Ill Patients” (Antimicrobial Agents and Chemotherapy, 2020)

Key:
[1] = critically ill patients; cited from earlier work
Protocol: It has been shown in healthy adults that with increasing weight, both V and clearance (CL) increase ([17]). […] Other models have also included weight as a covariate and obtained similar results ([10], [18]). Furthermore, Nguyen et al. described that caspofungin exposure was influenced by albumin concentration and body weight ([19]). During our model development, albumin was also tested ...

[2] = cited from earlier work
Description: This study has some limitations. […] As caspofungin is highly protein bound (∼97%), the extent of protein binding can change in ICU patients, and the measurement of unbound fractions may be useful; however, drug assessment can be difficult, as small absolute errors translate into large relative errors in highly protein-bound drugs ([26], [27]). Second, the PK/PD target for AUC is not well established in clinical trials, and the currently used targets are based on murine model ...

[3] = two-compartment population pharmacokinetic model (Pmetrics NPAG) in critically ill ICU patients; type: in vivo, human; details: 20 ICU patients
Protocol: This study included data from a prospective study in 20 adult critically ill patients admitted to an ICU with suspected invasive candidiasis and treated with caspofungin ([6]). For more details about the study population, see our previous publication ([6]).
All patients received a loading dose of 70 mg on the first day of treatment. The subsequent dose was 50 mg for patients weighing ≤80 kg, 70 mg for patients weighing >80 kg, and 35 mg and 50 mg, respectively, for patients with moderate hepatic impairment (Child-Pugh score of 7 to 9) ([8]). Caspofungin was administered as a 1-h infusion.
As the steady state for caspofungin is reached on the second day after the loading dose, blood sampling was performed on day 3 (range, 2 to 4) ([22]). […] The rationale for this target is described in detail in our previous publication ([6]). The sampling was performed before the administration and 1, 2, 3, 4, 6, 8, 12, and 24 h after the start of the caspofungin infusion. Caspofungin plasma concentrations were measured using a validated liquid chromatography-tandem mass spectrometry assay ([30]).
The pharmacokinetic modeling, probability of target attainment, and visual predictive checks were performed using the nonparametric adaptive grid program (NPAG) in Pmetrics (version 1.5.2) for R (version 3.6.1) (Laboratory of Applied Pharmacokinetics and Bioinformatics, Los Angeles, CA) ([16]).
The covariate selection was performed using the PMstep command of Pmetrics. Each covariate was tested in a linear regression analysis on pharmacokinetic parameters to see if there was a significant effect on AIC value (P < 0.05). […] The covariates, tested with a forward addition method, were weight, age, gender, concomitant administration of prednisolone/hydrocortisone, dialysis, aspartate aminotransferase (AST), alanine aminotransferase (ALT), gamma-glutamyl transpeptidase (GGT), bilirubin, albumin, C-reactive protein, leukocyte count, and simplified acute physiology score (SAPS 3).
The models were analyzed and compared using individual and population observed versus predicted goodness-of-fit plots, AIC, BIC, and −2 log likelihood. The prediction error was evaluated using bias (mean weighted prediction error) and imprecision (bias-adjusted mean weighted squared prediction error) for both the individual and population models. During the population modeling assay, error (standard deviation) and environmental noise were considered. For this, we used error polynomials in the following equation: standard deviation = C0 + C1 × observed concentration. The value 0.05 was used for C0 and 0.08 for C1. Gamma multiplicative and lambda additive error models were tested to estimate residual error ([12], [31]).

[4] = doses of up to 200 mg daily for an extended period of time; cited from earlier work

In the case of `CC[C@H](C)C[C@H](C)CCCCCCCCC(=O)N[C@H]1C[C@@H](O)[C@@H](NCCN)NC(=O)[C@@H]2[C@@H](O)CCN2C(=O)[C@H]([C@H](O)CCN)NC(=O)[C@H]([C@H](O)[C@@H](O)c2ccc(O)cc2)NC(=O)[C@@H]2C[C@@H](O)CN2C(=O)[C@H]([C@@H](C)O)NC1=O` [caspofungin], the CL [1] is listed as 0.54 L/h, the V [1] is listed as 7.03 L and the protein bound [2] is listed as ~97%. For the same compound, the “Ke, elimination rate constant, mean” value ([3]; 1-h infusion, plasma LC-MS/MS, final two-compartment model) was 0.09 h⁻¹, the “V0, volume of distribution, median” value ([3]; final model, V = V0 · weight/78) was 7.20 L/kg and the “Ke, elimination rate constant, median” value ([3]; final two-compartment model) was 0.08 h⁻¹. The “kcp, rate constant central to peripheral compartment, mean” value ([3]; final two-compartment model) was 0.44 h⁻¹, the “kcp, rate constant central to peripheral compartment, median” value ([3]; final two-compartment model) was 0.28 h⁻¹ and the “kpc, rate constant peripheral to central compartment, mean” value ([3]; final two-compartment model) was 0.46 h⁻¹. For the same compound, the “kpc, rate constant peripheral to central compartment, median” value ([3]; final two-compartment model) was 0.34 h⁻¹ and the tolerability [4] was “good tolerability was observed, with no described dose-limiting toxicity”.
